The text below walks through data of the Deep4Chem optical property database.

This series in a line: solvent given as SMILES.

`CC1=C(c2ccc(N(C)C)cc2)C(C)=[N+]2C1=C(c1c(-c3ccccn3)nc3ccccn13)c1c(C)c(-c3ccc(N(C)C)cc3)c(C)n1[B-]2(F)F`: the fluorescence lifetime (in ClCCl) stood at 0.2 ns.
Compound `CCc1ccc(-n2c3ccccc3c3cc4c(cc32)c2ccccc2n4-c2ccc(CC)s2)s1` displayed a fluorescence lifetime (in ClC(Cl)Cl) of 0.63 ns.
Regarding `[BH3-][P+]1(c2ccccc2)c2ccccc2-c2sc3ccccc3c21` (stereo not drawn), the fluorescence lifetime (in ClCCl) was found to be 3 ns.
The compound `[O-][n+]1c(-c2ccccc2)cc(N2CCOCC2)nc1/C=C/c1ccccc1` showed a fluorescence lifetime (in ClCCl) of 4.76 ns.
Consider `Cc1cc2nc3[nH]c(=O)[nH]c(=O)c3nc2cc1C`, for which the fluorescence lifetime (in CC#N) is 0.64 ns.
On the same count and under the same terms, next, `O=c1cc[nH]c(=O)[nH]1`: 0.0001 ns.
Consider `CSc1sc(C(=O)c2ccccc2)c2nn[nH]c(=O)c12`, for which the fluorescence lifetime came to 0.33 ns (in C1CCOC1); 0.41 ns (in CC#N); 0.28 ns (in CCO); 0.19 ns (in CN(C)C=O); 0.22 ns (in CO); 0.13 ns (in CS(C)=O).
Regarding `CC(C)(C)c1ccc(C#Cc2cc3ccc4cc(C#Cc5ccc(C(C)(C)C)cc5)cc5ccc(c2)c3c45)cc1`, the fluorescence lifetime (in ClCCl) is 37.1 ns.
With `CC(C)(C)c1ccc2c(c1)B1c3cc(C(C)(C)C)ccc3Oc3cc(-n4c5ccccc5c5c6c(c7ccccc7n6-c6ccccc6)c6c(c7ccccc7n6-c6ccccc6)c54)cc(c31)O2`, the fluorescence lifetime (in Cc1ccccc1) came to 19.6 ns.
`CCOC(=O)CN1C(=O)C2=C(c3ccc(N4CCCCC4)cc3)N(CC(=O)OCC)C(=O)C2=C1c1ccc(C#N)cc1`: the fluorescence lifetime by setting is: (in CC#N) 3.57 ns; (in CS(C)=O) 3.72 ns; (in Cc1ccccc1) 4.41 ns.
`c1coc(-c2nc3ccccc3[nH]2)c1`: the fluorescence lifetime runs as follows: (in C1CCOC1) 1.47 ns; (in CCCCCC) 1.48 ns; (in CCO) 1.55 ns; (in CCOCC) 1.53 ns; (in CO) 1.58 ns; (in ClC(Cl)Cl) 0.6 ns. The fluorescence lifetime worked out at 1.26 ns (in ClCCl) and 1.67 ns (in O).
Consider `Cc1ccc2c(c1)C(c1ccccc1)(c1ccccc1)c1cc(C)ccc1N2c1cc(C(C)C)c(B2c3ccccc3Sc3ccccc32)c(C(C)C)c1`, for which the fluorescence lifetime reads like this: (in Cc1ccccc1) 47 ns; (in O=P(c1ccccc1)(c1ccccc1)c1ccc2oc3ccc(P(=O)(c4ccccc4)c4ccccc4)cc3c2c1) 21 ns.
`CC1(C)C(=O)C=Cc2ccc(N)cc21` showed a fluorescence lifetime (in O) of 3.49 ns.
As for `FC(F)(F)c1ccc(-c2nnc(-c3cc(-n4c5ccccc5c5ccccc54)c(-n4c5ccccc5c5ccccc54)cc3-c3nnc(-c4ccc(C(F)(F)F)cc4)o3)o2)cc1`, the fluorescence lifetime (in Cc1ccccc1) turned out to be 19.1 ns.
The compound `C=CC12N=N[C@](C=C)(C3C4CCC(C4)C31)C1[C@@H]3CC[C@@H](C3)[C@H]12` (stereo partly drawn) came in with a fluorescence lifetime (in CC#N) of 268 ns.
With `CN(C)c1ccc(C2=Cc3ccc4ccccc4[n+]3[B-](F)(F)O2)cc1`, the fluorescence lifetime (in ClC(Cl)Cl) stood at 2.8 ns.
With `CC1(C)c2ccccc2N(c2ccc(-c3cccc(C#N)c3)cc2)c2ccccc21`, the fluorescence lifetime (in N#Cc1ccc2c(c1)c1ccccc1n2-c1cccc(-n2c3ccccc3c3ccccc32)c1) amounted to 6.53 ns.
Turning to `Nc1cccnc1`, the fluorescence lifetime is, setting by setting: (in C1CCCCC1) 26.5 ns; (in CC#N) 4.6 ns; (in CCO) 6.5 ns; (in CCOCC) 7.7 ns; (in O) 21.1 ns.
In turn, `C1=CC2CC1C1C2[C@@]2(c3ccccc3)N=NC1(c1ccccc1)[C@@H]1C[C@H]12` (stereo partly drawn) displayed a fluorescence lifetime (in CC#N) of 216 ns.
For `Nc1ccc(/C=C/c2ccc3ccccc3c2)cc1`, the fluorescence lifetime reads like this: (in CC#N) 0.23 ns; (in CCCCCC) 0.2 ns.
In turn, `COc1ccccc1-c1nc(-c2ccccc2)c2ccccn12` had a fluorescence lifetime (in CC#N) of 7.5 ns.
`Fc1cccc(C2=Cc3ccc4ccccc4[n+]3[B-](F)(F)O2)c1`: the fluorescence lifetime (in ClC(Cl)Cl) worked out at 1.11 ns.
On to `COc1c2ccccc2c(-c2ccccc2)c2ccccc12`, for which the fluorescence lifetime by setting is: (in CC1CCCCC1) 2.48 ns; (in CC#N) 1.38 ns; (in CC(C)CC(C)(C)C) 2.38 ns; (in CC(C)O) 2.94 ns; (in CCCCCC) 1.52 ns; (in CCCCO) 3.7 ns. Moreover, the fluorescence lifetime runs as follows: (in CCO) 2.9 ns; (in CO) 2.04 ns; (in OCC(O)CO) 7.53 ns.
Compound `CC1(C)c2ccccc2N(c2ccc(-c3nc([C@]45CC6CC(C[C@@H](C6)C4)C5)nc([C@]45C[C@H]6C[C@@H](C[C@H](C6)C4)C5)n3)cc2)c2ccccc21` yielded a fluorescence lifetime (in CC(C)(C)c1ccc(-n2c3ccc([Si](c4ccccc4)(c4ccccc4)c4ccccc4)cc3c3cc([Si](c4ccccc4)(c4ccccc4)c4ccccc4)ccc32)cc1) of 14.4 ns.
`C[Si](C)(C)C#Cc1cccc2ccccc12` yielded a fluorescence lifetime (in C1CCCCC1) of 9 ns.
Turning to `COc1cc(N(c2ccc(C=C(C#N)C#N)c(OC)c2)c2ccc(C=C(C#N)C#N)c(OC)c2)ccc1C=C(C#N)C#N`, the fluorescence lifetime runs as follows: (in C1COCCO1) 0.65 ns; (in CC#N) 0.14 ns; (in CC(C)=O) 0.17 ns; (in CCOC(C)=O) 0.32 ns; (in CN(C)C=O) 0.06 ns; (in CO) 0.12 ns. This compound showed a fluorescence lifetime (in Cc1ccccc1) of 0.03 ns, a fluorescence lifetime (in ClC(Cl)Cl) of 0.14 ns and a fluorescence lifetime (in ClCCl) of 0.09 ns.
As to `Cn1ccc(-c2nc3ccccc3nc2/C=C/N2CCCC2)c1`, the fluorescence lifetime (in C1CCCCC1) was found to be 1.87 ns; the fluorescence lifetime (in C1CCOC1) was 6.61 ns; the fluorescence lifetime (in CC#N) turned out to be 5.96 ns; the fluorescence lifetime (in CC(C)=O) was determined as 6.72 ns; the fluorescence lifetime (in CCO) is 0.39 ns; the fluorescence lifetime (in CO) was 0.12 ns. For the same compound, the fluorescence lifetime is 5.54 ns (in CS(C)=O), 5.1 ns (in Cc1ccccc1) and 8.33 ns (in ClCCl).
With `CC[n+]1nc2cc3c(cc2c2cc(C)ccc21)N(C)CCC3`, the fluorescence lifetime (in O) was determined as 4.3 ns.
Consider `CCOC(=O)c1csc2[n+]1[B-](F)(F)OC(c1ccc(N(C)C)cc1)=N2`, for which the fluorescence lifetime (in C1CCOC1) is 2.1 ns.
Take `CC(C)(C)c1ccc2c(c1)c1cc(C(C)(C)C)ccc1n2-c1cccc(-n2c3ccc(C(C)(C)C)cc3c3cc(C(C)(C)C)ccc32)c1C#N`: the fluorescence lifetime runs as follows: (in Cc1ccccc1) 5 ns; (in O=P(c1ccccc1)(c1ccccc1)c1ccccc1Oc1ccccc1P(=O)(c1ccccc1)c1ccccc1) 6.8 ns.
`COc1cccc(-[c+]2c3ccccc3oc3ccccc32)c1` returned a fluorescence lifetime (in CC#N) of 0.028 ns.
For `N#Cc1ncc(-c2c3ccccc3c(-c3cnc(C#N)nc3)c3ccccc23)cn1`, the fluorescence lifetime stood at 1.8 ns (in CCO) and 5.8 ns (in ClCCl).
For `O=c1cccc2n1C[C@@H]1CNC[C@H]2C1`, the fluorescence lifetime (in CC#N) was 0.289 ns.
With `CC(C)c1ccc2ccc3cccc4ccc1c2c34`, the fluorescence lifetime is, setting by setting: (in CCCCCC) 50.6 ns; (in CO) 149 ns; (in ClCCl) 77.8 ns.
In turn, `COc1ccc(C#Cc2c3cc4ccccc4cc3c(C#Cc3ccc(OC)cc3)c3cc4sc(C)cc4cc23)cc1` gave a fluorescence lifetime (in ClCCl) of 11.8 ns.
The compound `C1=Cc2ccccc2Cc2ccccc21` came in with a fluorescence lifetime (in CC#N) of 3.72 ns.
Turning to `O=C1c2cc(F)ccc2-c2cnccc21`, the fluorescence lifetime is 5.6 ns (in CC#N), 6.6 ns (in CCOC(C)=O), 4.5 ns (in Cc1ccccc1) and 6.3 ns (in ClCCl).
As for `N#Cc1ccc(C#Cc2ccc(C#Cc3ccccc3C#N)cc2C#N)cc1`, under “in ClC(Cl)Cl”, the fluorescence lifetime was 1.83 ns.
On to `COc1c2ccccc2c(OC)c2c1c1cc(Cl)ccc1n2C`, for which the fluorescence lifetime (in C1CCCCC1) stood at 21.2 ns, the fluorescence lifetime (in CC#N) was found to be 26.8 ns, the fluorescence lifetime (in CO) was 25.9 ns and the fluorescence lifetime (in ClCCl) is 23.2 ns.
On to `N#Cc1c(-n2c3ccccc3c3ccccc32)c(-n2c3ccccc3c3ccccc32)c(C#N)c(-n2c3ccccc3c3ccccc32)c1-n1c2ccccc2c2ccccc21`, for which, where the note is “in Cc1ccccc1”, the fluorescence lifetime came out at 8.8 ns.
Compound `CCc1c(C)c2n(c1C)[B-](F)(F)[N+]1=C(c3ccc[nH]3)c3ccccc3C1=C2` came in with a fluorescence lifetime (in ClCCl) of 6.41 ns.
For `CC1(C)OB(c2cc3ccc4cccc5ccc(c2)c3c45)OC1(C)C`, the fluorescence lifetime (in Cc1ccccc1) amounted to 82 ns.
Take `CC1=[N+]2C(=C(c3ccccc3C)c3ccc(C)n3[B-]2(F)F)C=C1c1cc2n(c1)[B-](F)(F)[N+]1=CC=CC1=C2c1c(C)cc(C)cc1C`: the fluorescence lifetime is, setting by setting: (in C1CCCCC1) 2.84 ns; (in CCOC(C)=O) 0.81 ns.
On to `FC(F)(F)c1ccc(/C2=C3N=C(C(c4ccccc4)=C/3c3ccccc3)/C(c3ccc(C(F)(F)F)cc3)=c3\[nH]/c(c(-c4ccccc4)c3-c3ccccc3)=C(/c3ccc(C(F)(F)F)cc3)C3=N/C(=C(/c4ccc(C(F)(F)F)cc4)c4[nH]c2c(-c2ccccc2)c4-c2ccccc2)C(c2ccccc2)=C3c2ccccc2)cc1`, for which, for the setting “in ClCCl”, the fluorescence lifetime stood at 0.423 ns.
Where the note is “in ClC(Cl)Cl”, `F[B-]1(F)OC(c2ccccc2)=Cc2ccc3ccccc3[n+]21` gave a fluorescence lifetime of 1.29 ns.
`CCN(CC)c1ccc2c(c1)oc(=O)c1cc3c(-c4ccccc4)nn(C)c3nc12` had a fluorescence lifetime (in ClCCl) of 18.9 ns.
For `COCCOCCOCCOCC(COCCOCCOCCOC)Oc1cc(/C=C/c2ccc(/C=C(\C#N)c3ccc(C(F)(F)F)cc3)cc2)c(OC(COCCOCCOCCOC)COCCOCCOCCOC)cc1/C=C/c1ccc(/C=C(\C#N)c2ccc(C(F)(F)F)cc2)cc1`, the fluorescence lifetime (in ClCCl) is 1.6 ns.
As for `Cc1cc(-c2ccc(C(C)(C)C)cc2)cc(C)[o+]1`, the fluorescence lifetime (in CC#N) turned out to be 8 ns and the fluorescence lifetime (in ClCCl) was found to be 2.1 ns.
Take `COc1ccc(/C=C/C2=[O+][B-](F)(F)OC(/C=C/c3ccc(OC)cc3)=C2c2ccccc2)cc1`: the fluorescence lifetime by setting is: (in CC#N) 1.5 ns; (in CC(C)=O) 1.43 ns; (in CCOC(C)=O) 1.18 ns; (in CCOCC) 0.9 ns; (in ClC(Cl)(Cl)Cl) 0.7 ns; (in ClCCl) 1.35 ns.
`CCCCCCOc1ccc(N(c2ccc(OCCCCCC)cc2)c2ccc(-c3sc(-c4ccc(N(c5ccc(OCCCCCC)cc5)c5ccc(OCCCCCC)cc5)cc4)c4nc(-c5ccc(C(=O)OC)cc5)c(-c5ccc(C(=O)OC)cc5)nc34)cc2)cc1` returned a fluorescence lifetime (in CN(C)C=O) of 0.61 ns and a fluorescence lifetime (in ClC(Cl)Cl) of 0.58 ns.
Compound `O=C(O)c1ccc(-c2ccc(-c3nc(-c4ccccc4)c4ccccn34)cc2)s1` returned a fluorescence lifetime (in CC#N) of 1.5 ns.
